These results are taken from ChEMBL document CHEMBL1128617, “4-Deoxy-4-aminoavermectins with potent broad spectrum antiparasitic activities” (1995).

Holding throughout (format): functional
Assay [1] relates to Haemonchus contortus. Briefly: Antiparasitic activity against Haemonchus contortus at dose of 0.10 mg/kg in sheep anthelmintic test. The following applies: dose 0.1 mg/kg.
Assay [2] deals with Trichostrongylus axei. As to the kind of experiment: Antiparasitic activity against Trichostrongylus axei at dose of 0.10 mg/kg in sheep anthelmintic test. The following applies: dose 0.1 mg/kg.
A further assay relates to Artemia. As to the kind of experiment: In vitro antiparasitic activity in brine shrimp assay.
The subject of assay [3] is Teladorsagia circumcincta. As to the kind of experiment: Antiparasitic activity against Ostertagia circumcincta at dose of 0.10 mg/kg in sheep anthelmintic test. The conditions noted are these: dose 0.1 mg/kg.
The subject of assay [4] is Oesophagostomum columbianum. Briefly: Antiparasitic activity against Oesophagostomum columbianum at dose of 0.10 mg/kg in sheep anthelmintic test. The conditions noted are these: dose 0.1 mg/kg.
In assay [5] the test system is Trichostrongylus colubriformis. Briefly: Antiparasitic activity against Trichostrongylus colubriformis at dose of 0.10 mg/kg in sheep anthelmintic test. The following applies: dose 0.1 mg/kg.
For assay [6], the system named is Cooperia. Briefly: Antiparasitic activity against Cooperia […] at dose of 0.10 mg/kg in sheep anthelmintic test. The conditions noted are these: dose 0.1 mg/kg.
In assay [7] the test system is Trichostrongylus axei. Briefly: Antiparasitic activity against Trichostrongylus axei at dose of 0.05 mg/kg in sheep anthelmintic test.
The test system of assay [8] is Cooperia. As to the kind of experiment: Antiparasitic activity against Cooperia […] at dose of 0.05 mg/kg in sheep anthelmintic test.
The next assay concerns Cooperia oncophora. Briefly: Antiparasitic activity against Cooperia oncophora at dose of 0.05 mg/kg in sheep anthelmintic test.
The test system of assay [9] is Teladorsagia circumcincta. As to the kind of experiment: Antiparasitic activity against Ostertagia circumcincta at dose of 0.05 mg/kg in sheep anthelmintic test.
Assay [10] deals with Oesophagostomum columbianum. As to the kind of experiment: Antiparasitic activity against Oesophagostomum columbianum at dose of 0.05 mg/kg in sheep anthelmintic test.
The test system of assay [11] is Trichostrongylus colubriformis. Briefly: Antiparasitic activity against Trichostrongylus colubriformis at dose of 0.05 mg/kg in sheep anthelmintic test.
The test system of assay [12] is Haemonchus contortus. Briefly: Antiparasitic activity against Haemonchus contortus at dose of 0.05 mg/kg in sheep anthelmintic test.

SMILES strings stand for the structures. A value given as a limit tells only on which side of the number the result lay.

Turning to `CCC(C)[C@H]1O[C@]2(C=C[C@@H]1C)C[C@@H]1C[C@@H](C/C=C(\C)[C@@H](O[C@H]3C[C@H](OC)[C@H](NC(C)=O)[C@H](C)O3)[C@@H](C)/C=C/C=C3\CO[C@@H]4[C@H](O)C(C)=C[C@@H](C(=O)O1)[C@]34O)O2` (some centres undefined), the Reduction with Haemonchus contortus [1] was below 50%; in the assay on Trichostrongylus axei [2], above 95%; in assay [3], above 95%; in [4], 76%; in assay [5] it was above 95%; with Cooperia [6], below 50%. Besides, the IC100 with Artemia is 1300 ng/mL.

For the molecule `CCC(C)[C@H]1O[C@]2(C=C[C@@H]1C)C[C@@H]1C[C@@H](C/C=C(\C)[C@@H](O[C@H]3C[C@H](OC)[C@@H](O[C@H]4C[C@H](OC)[C@H](NC(=O)c5ccccc5)[C@H](C)O4)[C@H](C)O3)[C@@H](C)/C=C/C=C3\CO[C@@H]4[C@H](O)C(C)=C[C@@H](C(=O)O1)[C@]34O)O2` (some centres undefined), the Reduction in the assay with Trichostrongylus axei [7] is below 50%; with Cooperia [8] it was above 95%; in the assay with Cooperia oncophora, above 95%; in [9], 76%; in assay [10], above 95%; in assay [11] it was below 50%. For the same molecule, the Reduction in the assay with Haemonchus contortus [12] came to 76%. The molecule further gave an IC100 in the assay with Artemia of 28000 ng/mL.

Turning to `CCC(C)[C@H]1O[C@]2(C=C[C@@H]1C)C[C@@H]1C[C@@H](C/C=C(\C)[C@@H](O[C@H]3C[C@H](OC)[C@@H](O[C@H]4C[C@H](OC)[C@H](NC(=O)C(C)(C)C)[C@H](C)O4)[C@H](C)O3)[C@@H](C)/C=C/C=C3\CO[C@@H]4[C@H](O)C(C)=C[C@@H](C(=O)O1)[C@]34O)O2` (some centres undefined), the Reduction with Haemonchus contortus [1] is given as above 95%; in the assay with Trichostrongylus axei [2], 76%; in [3], 76%; in assay [4] it was above 95%; in [5], 76%; in the assay on Cooperia [6] it was above 95%. In the assay with Artemia, this molecule returned an IC100 of 1730 ng/mL.

On to `CCCCCCCCN[C@@H]1[C@H](C)O[C@@H](O[C@H]2[C@H](C)O[C@@H](O[C@@H]3/C(C)=C/C[C@@H]4C[C@@H](C[C@]5(C=C[C@H](C)[C@@H](C(C)CC)O5)O4)OC(=O)[C@@H]4C=C(C)[C@@H](O)[C@H]5OC/C(=C\C=C\[C@@H]3C)[C@]54O)C[C@@H]2OC)C[C@@H]1OC` (some centres undefined), for which the Reduction (in the assay with Haemonchus contortus [1]; with Trichostrongylus axei [2]; in assay [3]; in assay [4]; in [5]; with Cooperia [6]) was below 50% in each case. Moreover, the IC100 with Artemia is above 55500 ng/mL.

Turning to `CCC(C)[C@H]1O[C@]2(C=C[C@@H]1C)C[C@@H]1C[C@@H](C/C=C(\C)[C@@H](O[C@H]3C[C@H](OC)[C@@H](O[C@H]4C[C@H](OC)[C@H](NC(=O)NC)[C@H](C)O4)[C@H](C)O3)[C@@H](C)/C=C/C=C3\CO[C@@H]4[C@H](O)C(C)=C[C@@H](C(=O)O1)[C@]34O)O2` (some centres undefined), the Reduction in the assay on Haemonchus contortus [1] is above 95%; in the assay with Trichostrongylus axei [2], above 95%; in assay [3], 51%; in assay [4], above 95%; in assay [5] it was 76%; in the assay on Cooperia [6], above 95%. Moreover, in the assay on Artemia, the IC100 came out at 430 ng/mL.

As to `CCC(C)[C@H]1O[C@]2(C=C[C@@H]1C)C[C@@H]1C[C@@H](C/C=C(\C)[C@@H](O[C@H]3C[C@H](OC)[C@@H](O[C@H]4C[C@H](OC)[C@H](NC(=O)C(F)(F)F)[C@H](C)O4)[C@H](C)O3)[C@@H](C)/C=C/C=C3\CO[C@@H]4[C@H](O)C(C)=C[C@@H](C(=O)O1)[C@]34O)O2` (some centres undefined), the Reduction in the assay with Haemonchus contortus [1] was above 95%; in the assay with Trichostrongylus axei [2], above 95%; in assay [3] it was below 50%; in assay [4] it was above 95%; in assay [5] it was above 95%; in the assay on Cooperia [6], above 95%. In the assay on Artemia, this molecule showed an IC100 of 27800 ng/mL.

For `CCC(C)[C@H]1O[C@]2(CC[C@@H]1C)C[C@@H]1C[C@@H](C/C=C(\C)[C@@H](O[C@H]3C[C@H](OC)[C@@H](O[C@H]4C[C@H](OC)[C@H](N)[C@H](C)O4)[C@H](C)O3)[C@@H](C)/C=C/C=C3\CO[C@@H]4[C@H](O)C(C)=C[C@@H](C(=O)O1)[C@]34O)O2` (some centres undefined), the Reduction in the assay on Haemonchus contortus [1] is reported as above 95%; in the assay with Trichostrongylus axei [2], below 50%; in assay [3] it was above 95%; in assay [4] it was above 95%; in assay [5], below 50%; with Cooperia [6], above 95%. In the assay on Artemia, the IC100 was found to be 1730 ng/mL.

For `CCC(C)[C@H]1O[C@]2(C=C[C@@H]1C)C[C@@H]1C[C@@H](C/C=C(\C)[C@@H](O[C@H]3C[C@H](OC)[C@@H](O[C@H]4C[C@H](OC)[C@H](N)[C@H](C)O4)[C@H](C)O3)[C@@H](C)/C=C/C=C3\CO[C@@H]4[C@H](O)C(C)=C[C@@H](C(=O)O1)[C@]34O)O2` (some centres undefined), the Reduction in the assay with Haemonchus contortus [1] is above 95%; in the assay on Trichostrongylus axei [2] it was below 50%; in assay [3], above 95%; in [4], above 95%; in assay [5] it was 51%; with Cooperia [6] it was above 95%. The IC100 with Artemia is 1730 ng/mL.

For the molecule `CCC(C)[C@H]1O[C@]2(C=C[C@@H]1C)C[C@@H]1C[C@@H](C/C=C(\C)[C@@H](O[C@H]3C[C@H](OC)[C@@H](O[C@H]4C[C@H](OC)[C@@H](N)[C@H](C)O4)[C@H](C)O3)[C@@H](C)/C=C/C=C3\CO[C@@H]4[C@H](O)C(C)=C[C@@H](C(=O)O1)[C@]34O)O2` (some centres undefined), the Reduction in the assay with Haemonchus contortus [1] was above 95%; in the assay with Trichostrongylus axei [2] it was below 50%; in [3] it was above 95%; in assay [4] it was above 95%; in assay [5], below 50%; with Cooperia [6], above 95%. This molecule also came in with an IC100 with Artemia of 2600 ng/mL.

As for `CCC(C)[C@H]1O[C@]2(C=C[C@@H]1C)C[C@@H]1C[C@@H](C/C=C(\C)[C@@H](O[C@H]3C[C@H](OC)[C@@H](O[C@H]4C[C@H](OC)[C@@H](O)[C@H](C)O4)[C@H](C)O3)[C@@H](C)/C=C/C=C3\CO[C@@H]4[C@H](O)C(C)=C[C@@H](C(=O)O1)[C@]34O)O2` (some centres undefined) [AVERMECTIN], the Reduction (in the assay on Haemonchus contortus [1]; with Trichostrongylus axei [2]; in assay [3]; in assay [4]; in assay [5]; in the assay with Cooperia [6]) was above 95% each time. This molecule displayed an IC100 with Artemia of 296 ng/mL.

On to `CCC(C)[C@H]1O[C@]2(CC[C@@H]1C)C[C@@H]1C[C@@H](C/C=C(\C)[C@@H](O[C@H]3C[C@H](OC)[C@@H](O[C@H]4C[C@H](OC)[C@H](NC(=O)COC)[C@H](C)O4)[C@H](C)O3)[C@@H](C)/C=C/C=C3\CO[C@@H]4[C@H](O)C(C)=C[C@@H](C(=O)O1)[C@]34O)O2` (some centres undefined), for which the Reduction with Haemonchus contortus [1] was above 95%; in the assay with Trichostrongylus axei [2], above 95%; in assay [3], above 95%; in [4], above 95%; in assay [5], 76%; with Cooperia [6], above 95%. This molecule yielded an IC100 in the assay on Artemia of 870 ng/mL.

Regarding `CCC(C)[C@H]1O[C@]2(C=C[C@@H]1C)C[C@@H]1C[C@@H](C/C=C(\C)[C@@H](O[C@H]3C[C@H](OC)[C@@H](O[C@H]4C[C@H](OC)[C@H](NCCO)[C@H](C)O4)[C@H](C)O3)[C@@H](C)/C=C/C=C3\CO[C@@H]4[C@H](O)C(C)=C[C@@H](C(=O)O1)[C@]34O)O2` (some centres undefined), the Reduction was above 95% in the assay on Haemonchus contortus [1]; below 50% with Trichostrongylus axei [2]; above 95% in [3]; above 95% in [4]; 76% in assay [5]; above 95% in the assay with Cooperia [6]. Moreover, in the assay on Artemia, the IC100 was 3470 ng/mL.

For the molecule `CCC(C)[C@H]1O[C@]2(C=C[C@@H]1C)C[C@@H]1C[C@@H](C/C=C(\C)[C@@H](O[C@H]3C[C@H](OC)[C@@H](O[C@H]4C[C@H](OC)[C@H](NC(C)=O)[C@H](C)O4)[C@H](C)O3)[C@@H](C)/C=C/C=C3\CO[C@@H]4[C@H](O)C(C)=C[C@@H](C(=O)O1)[C@]34O)O2` (some centres undefined), the Reduction (with Trichostrongylus axei [7]; in the assay with Cooperia [8]; in assay [9]; in assay [10]; in [11]; in the assay with Haemonchus contortus [12]) was above 95% throughout. In the assay with Artemia, the IC100 is 540 ng/mL.

For the molecule `CCC(C)[C@H]1O[C@]2(C=C[C@@H]1C)C[C@@H]1C[C@@H](C/C=C(\C)[C@@H](O[C@H]3C[C@H](OC)[C@@H](O[C@H]4C[C@H](OC)[C@H](NC)[C@H](C)O4)[C@H](C)O3)[C@@H](C)/C=C/C=C3\CO[C@@H]4[C@H](O)C(C)=C[C@@H](C(=O)O1)[C@]34O)O2` (some centres undefined), the Reduction is above 95% in the assay with Haemonchus contortus [1]; above 95% in the assay with Trichostrongylus axei [2]; above 95% in assay [3]; above 95% in [4]; 76% in assay [5]; above 95% in the assay on Cooperia [6]. Besides, the IC100 in the assay with Artemia worked out at 1730 ng/mL.
